Measurements from the NIST ThermoML archive (doi:10.1021/acs.jced.8b00132).
Values joined by “and” are separate entries in the source; they are usually repeats but may differ in a detail not shown here. Identical values can stand only once.

O=C(C(F)(F)C(F)(F)F)C(F)(C(F)(F)F)C(F)(F)F [dodecafluoro-2-methylpentan-3-one]
Settings | thermal conductivity
433.25 K, 43 kPa, Gas, hot wire | 0.02108 W/m/K
433.25 K, 156 kPa, Gas, hot wire | 0.02107 W/m/K
433.27 K, 1298 kPa, Gas, transient hot wire | 0.02415 W/m/K
433.28 K, 371 kPa, Gas, hot wire | 0.0228 W/m/K and 0.02281 W/m/K
433.28 K, 922 kPa, Gas, transient hot wire | 0.02221 W/m/K
433.28 K, 49421 kPa, Liquid, transient hot wire | 0.0643 W/m/K
433.29 K, 49444 kPa, Liquid, transient hot wire | 0.06433 W/m/K
433.3 K, 9673 kPa, Liquid, transient hot wire | 0.04596 W/m/K
433.3 K, 22710 kPa, Liquid, transient hot wire | 0.05348 W/m/K
433.31 K, 9675 kPa, Liquid, transient hot wire | 0.04592 W/m/K
433.35 K, 1138 kPa, Gas, transient hot wire | 0.02299 W/m/K
433.36 K, 15082 kPa, Liquid, transient hot wire | 0.04913 W/m/K
433.36 K, 22714 kPa, Liquid, transient hot wire | 0.0536 W/m/K
433.37 K, 162 kPa, Gas, hot wire | 0.02126 W/m/K
433.37 K, 1138 kPa, Gas, transient hot wire | 0.02295 W/m/K
433.37 K, 15085 kPa, Liquid, transient hot wire | 0.04954 W/m/K
433.38 K, 43 kPa, Gas, hot wire | 0.02108 W/m/K
433.38 K, 159 kPa, Gas, hot wire | 0.02129 W/m/K
433.38 K, 6166 kPa, Liquid, transient hot wire | 0.04304 W/m/K
433.39 K, 43 kPa, Gas, hot wire | 0.02105 W/m/K
433.39 K, 6163 kPa, Liquid, transient hot wire | 0.04307 W/m/K
433.41 K, 34187 kPa, Liquid, transient hot wire | 0.05868 W/m/K
433.43 K, 922 kPa, Gas, transient hot wire | 0.02216 W/m/K
433.43 K, 34200 kPa, Liquid, transient hot wire | 0.05865 W/m/K
433.44 K, 922 kPa, Gas, transient hot wire | 0.02224 W/m/K
433.45 K, 3945 kPa, Liquid, transient hot wire | 0.04079 W/m/K
433.46 K, 3946 kPa, Liquid, transient hot wire | 0.04082 W/m/K
433.49 K, 9685 kPa, Liquid, transient hot wire | 0.046 W/m/K
433.5 K, 375 kPa, Gas, transient hot wire | 0.02215 W/m/K
433.5 K, 9681 kPa, Liquid, transient hot wire | 0.04597 W/m/K
433.51 K, 377 kPa, Gas, transient hot wire | 0.02227 W/m/K
433.52 K, 1139 kPa, Gas, transient hot wire | 0.02308 W/m/K and 0.02311 W/m/K
433.53 K, 654 kPa, Gas, transient hot wire | 0.02193 W/m/K
433.53 K, 655 kPa, Gas, transient hot wire | 0.02205 W/m/K
433.55 K, 15079 kPa, Liquid, transient hot wire | 0.04951 W/m/K
433.55 K, 15081 kPa, Liquid, transient hot wire | 0.04953 W/m/K
433.55 K, 22699 kPa, Liquid, transient hot wire | 0.05365 W/m/K
433.55 K, 22714 kPa, Liquid, transient hot wire | 0.05356 W/m/K
433.59 K, 6168 kPa, Liquid, transient hot wire | 0.04309 W/m/K
433.59 K, 6172 kPa, Liquid, transient hot wire | 0.04309 W/m/K
433.6 K, 922 kPa, Gas, transient hot wire | 0.02237 W/m/K
433.69 K, 1141 kPa, Gas, transient hot wire | 0.02332 W/m/K
433.7 K, 374 kPa, Gas, transient hot wire | 0.02216 W/m/K
433.7 K, 375 kPa, Gas, transient hot wire | 0.02227 W/m/K
433.7 K, 1140 kPa, Gas, transient hot wire | 0.02335 W/m/K
433.7 K, 9688 kPa, Liquid, transient hot wire | 0.04596 W/m/K
433.7 K, 9691 kPa, Liquid, transient hot wire | 0.046 W/m/K
433.72 K, 652 kPa, Gas, transient hot wire | 0.02204 W/m/K
433.74 K, 651 kPa, Gas, transient hot wire | 0.02205 W/m/K
433.76 K, 15088 kPa, Liquid, transient hot wire | 0.04948 W/m/K
433.76 K, 15091 kPa, Liquid, transient hot wire | 0.04951 W/m/K
433.79 K, 922 kPa, Gas, transient hot wire | 0.02242 W/m/K
433.81 K, 6177 kPa, Liquid, transient hot wire | 0.04299 W/m/K
433.82 K, 6182 kPa, Liquid, transient hot wire | 0.04309 W/m/K
433.87 K, 1141 kPa, Gas, transient hot wire | 0.02354 W/m/K
433.88 K, 1141 kPa, Gas, transient hot wire | 0.02356 W/m/K
433.89 K, 373 kPa, Gas, transient hot wire | 0.02231 W/m/K
433.9 K, 373 kPa, Gas, transient hot wire | 0.02227 W/m/K
433.92 K, 9693 kPa, Liquid, transient hot wire | 0.04597 W/m/K
433.92 K, 9695 kPa, Liquid, transient hot wire | 0.04596 W/m/K
433.94 K, 648 kPa, Gas, transient hot wire | 0.02211 W/m/K
433.94 K, 649 kPa, Gas, transient hot wire | 0.02204 W/m/K
433.96 K, 922 kPa, Gas, transient hot wire | 0.02254 W/m/K
433.98 K, 922 kPa, Gas, transient hot wire | 0.02253 W/m/K
434.12 K, 372 kPa, Gas, transient hot wire | 0.02229 W/m/K and 0.02228 W/m/K
434.14 K, 645 kPa, Gas, transient hot wire | 0.02216 W/m/K
434.14 K, 646 kPa, Gas, transient hot wire | 0.02214 W/m/K
434.33 K, 371 kPa, Gas, transient hot wire | 0.02233 W/m/K
434.35 K, 371 kPa, Gas, transient hot wire | 0.02232 W/m/K
452.91 K, 2283 kPa, Gas, transient hot wire | 0.03823 W/m/K
452.94 K, 2214 kPa, Gas, transient hot wire | 0.03736 W/m/K
452.96 K, 2283 kPa, Gas, transient hot wire | 0.03736 W/m/K
452.98 K, 2213 kPa, Gas, transient hot wire | 0.03655 W/m/K
452.99 K, 2283 kPa, Gas, transient hot wire | 0.03849 W/m/K
452.99 K, 2349 kPa, Gas, transient hot wire | 0.03688 W/m/K
453 K, 2137 kPa, Gas, transient hot wire | 0.033 W/m/K
453 K, 2214 kPa, Gas, transient hot wire | 0.0364 W/m/K
453 K, 2283 kPa, Gas, transient hot wire | 0.03799 W/m/K
453.01 K, 2349 kPa, Gas, transient hot wire | 0.03694 W/m/K
453.01 K, 2431 kPa, Gas, transient hot wire | 0.0358 W/m/K
453.03 K, 2213 kPa, Gas, transient hot wire | 0.03832 W/m/K
453.03 K, 2432 kPa, Gas, transient hot wire | 0.03591 W/m/K
453.04 K, 2137 kPa, Gas, transient hot wire | 0.03326 W/m/K
453.04 K, 2213 kPa, Gas, transient hot wire | 0.0384 W/m/K and 0.03766 W/m/K
